Results taken from ChEMBL document CHEMBL1201862, “PubChem BioAssay data set” (2004).
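Five concentrations, 48 hours, 96-well plates. At the GI50, growth is halved.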 Active and inactive are the calls of the source. No stated cut-off is given here; in the data, active = GI50 up to about 1.1 µM and inactive = higher.

How the values were obtained:
Test in all cases: NCI anticancer screen, dose series, 48 h
BT-549 = test system: BT-549
RXF 393 = test system: RXF 393
KM-20L2 = test system: KM-20L2
LXFL 529 = test system: LXFL 529
DMS-273 = test system: DMS-273
XF498 = test system: XF498
DMS-114 = test system: DMS-114
M19-MEL = test system: M19-MEL
RXF 631 = test system: RXF 631

| Structure (SMILES) | GI50 (BT-549) | GI50 (RXF 393) | GI50 (KM-20L2) | GI50 (LXFL 529) | GI50 (DMS-273) | GI50 (XF498) | GI50 (DMS-114) | GI50 (M19-MEL) | GI50 (RXF 631) |
| --- | --- | --- | --- | --- | --- | --- | --- | --- | --- |
| Cc1ccc(S(=O)(=O)NC(=O)NC2=NC(C)(C)N(c3ccc(Cl)c(Cl)c3)C(N)=N2)cc1 | > 100 µM (inactive) | 66.7 µM (inactive) |  |  |  |  |  |  |  |
| Cc1ccccc1NC(=O)C(=O)C(C1OC(=O)c2ccccc21)[N+](=O)[O-] (stereo not drawn) |  | > 100 µM (inactive) | > 100 µM (inactive) | > 100 µM (inactive) | > 100 µM (inactive) | > 100 µM (inactive) | > 100 µM (inactive) | > 100 µM (inactive) |  |
| Cc1ccc(OP2(=O)Oc3ccc4ccccc4c3CN2c2ccc(Cl)cc2)cc1C (stereo not drawn) |  | > 100 µM (inactive) | > 100 µM (inactive) |  | > 100 µM (inactive) | > 100 µM (inactive) | > 100 µM (inactive) | > 100 µM (inactive) |  |
| S=C(NCCCCCCNC(=S)Nc1c2ccccc2nc2ccccc12)Nc1c2ccccc2nc2ccccc12 |  | > 100 µM (inactive) | 79.4 µM (inactive) |  | 65.9 µM (inactive) | > 89.9 µM (inactive) |  | > 100 µM (inactive) |  |
| COc1ccccc1-c1cc(O)c2c(C)ccnc2n1 | 7.1 µM (inactive) | 29.7 µM (inactive) |  |  |  |  |  |  |  |
| O=C(c1ccccc1)N1C(=S)NC(=N/c2ccccc2)/C1=N\c1ccccc1 |  | 33.9 µM (inactive) |  |  |  |  |  |  |  |
| CC(=O)OC1CCC2(C)C(=CCC3C2CCC2(C)C3CC3OC4(CCC(C)CN4)C(C)C32)C1 (stereo not drawn) | > 100 µM (inactive) | > 100 µM (inactive) |  |  |  |  |  |  |  |
| C/C(=C\C(=O)Nc1ccc2[nH]nnc2c1)Nc1ccc2[nH]nnc2c1 |  | > 100 µM (inactive) | > 100 µM (inactive) | > 100 µM (inactive) |  |  | > 100 µM (inactive) | > 100 µM (inactive) | > 100 µM (inactive) |
| CCOC(=O)C[n+]1ccc2c([nH]c3cc(OC)ccc32)c1C |  | > 100 µM (inactive) | > 65.2 µM (inactive) |  | > 100 µM (inactive) | 25.9 µM (inactive) | > 83.2 µM (inactive) | > 100 µM (inactive) |  |
| O=[N+]([O-])c1ccc(-n2nnc(C3=NCCCN3)c2-c2ccc(Cl)cc2)cc1 |  | 73.1 µM (inactive) | > 100 µM (inactive) | > 100 µM (inactive) | > 100 µM (inactive) | > 100 µM (inactive) |  | 69.5 µM (inactive) |  |
| CC(C)N/C(N)=N/C#N |  |  | > 100 µM (inactive) | > 100 µM (inactive) |  | > 100 µM (inactive) | > 100 µM (inactive) | > 100 µM (inactive) |  |
| ClCCN1CCOC1=C1C=CC=C1 | > 100 µM (inactive) |  |  |  |  |  |  |  |  |
| O=C(O)C1CCC(=O)N1S(=O)(=O)c1ccccc1 (stereo not drawn) |  | > 100 µM (inactive) | > 100 µM (inactive) |  | > 100 µM (inactive) | > 100 µM (inactive) | > 100 µM (inactive) | > 100 µM (inactive) |  |
| c1ccc2cc3c(cc2c1)OP1(Oc2cccc4cccnc24)(O3)Oc2cc3ccccc3cc2O1 |  | 7.29 µM (inactive) | 3.39 µM (inactive) |  | 3.49 µM (inactive) | 3.71 µM (inactive) | 1.79 µM (inactive) | 9.89 µM (inactive) |  |
| CCOC(=O)CC1=N/C(=N/C(=N)N[N+](=O)[O-])SC1 |  | > 100 µM (inactive) | > 100 µM (inactive) | > 100 µM (inactive) | > 100 µM (inactive) |  |  | > 100 µM (inactive) |  |
| C=CC1(NC(=O)c2ccccc2)CCC(C(C)(C)C)CC1 (stereo not drawn) |  | 49.3 µM (inactive) | 19.1 µM (inactive) |  | 32.2 µM (inactive) | > 43.1 µM (inactive) | 27.7 µM (inactive) | 29.5 µM (inactive) |  |
| CO/N=C(\C)c1ccc(Nc2nc3ccccc3c3occc23)cc1 | 16.8 µM (inactive) |  |  |  |  |  |  |  |  |
| Cc1ccc(C(=O)N/N=C(\N=N\c2ccc([N+](=O)[O-])cc2)c2ccc(N(CCC#N)CCC#N)cc2C)cc1 | 47.1 µM (inactive) | 16.7 µM (inactive) |  |  |  |  |  |  |  |
| CSCSCC(N)CO.Cc1[nH]c(=O)[nH]c(=O)c1/C=C/C(=O)O |  | > 625 µM (inactive) | > 625 µM (inactive) |  | > 625 µM (inactive) | > 625 µM (inactive) | > 625 µM (inactive) | > 625 µM (inactive) |  |
| CCC(/C=C/c1ccccc1)=N\Nc1ccc(Cl)c(Cl)c1 |  | 26.7 µM (inactive) |  |  |  |  |  |  |  |
| COC1/C=C/C=C(/C)Cc2cc(O)c(Cl)c(c2)N(C)C(=O)CC(OC(=O)C(C)C)C2(C)OC2C(C)C2CC1(O)NC(=O)O2 (stereo not drawn) | < 0.01 µM (active) | < 0.01 µM (active) |  |  |  |  |  |  |  |
| CCOC(=O)c1ccc(Nc2cnc3cc(C(F)(F)F)ccc3n2)cc1 | > 100 µM (inactive) | > 10 µM (inactive) |  |  |  |  |  |  |  |
| BrC1=CN2C[n+]3cc(Br)c4ccccc4c3N=C2c2ccccc21 | 16.9 µM (inactive) |  |  |  |  |  |  |  |  |
| COC(=O)/C=C1\CCC(C)(C(=O)NS(=O)(=O)c2ccc(C)cc2)C1(C)C (stereo not drawn) | > 100 µM (inactive) | > 100 µM (inactive) |  |  |  |  |  |  |  |
| O=NN(CCCl)C(=O)NCCCl [CARMUSTINE] | 79.3 µM (inactive) | 76.2 µM (inactive) | 94 µM (inactive) | 71.4 µM (inactive) | 74 µM (inactive) | 68.1 µM (inactive) | 61.5 µM (inactive) | 77.6 µM (inactive) | 80.2 µM (inactive) |
